ChEMBL document CHEMBL5104178, “Nitroimidazopyrazinones with Oral Activity against Tuberculosis and Chagas Disease in Mouse Models of Infection” (J Med Chem, 2022)
≈ marks a conversion by molar mass, not a printed value.

What was measured:
[1] = tested on: Mycobacterium tuberculosis; assay: Antimycobacterial activity against Mycobacterium tuberculosis H37Ra ATCC 25177 assessed as bacterial growth inhibition incubated for 6 days under normoxic condition by resazurin microtiter assay; format: functional; settings: H37Ra ATCC 25177, 144 h, time 6 day
[2] = tested on: Mycobacterium tuberculosis; assay: Antimycobacterial activity against Mycobacterium tuberculosis H37Rv ATCC 27294 assessed as bacterial growth inhibition at 0.125 to 8 ug/ml incubated for 5 days under hypoxic condition by resazurin microtiter assay relative to control; format: functional; settings: dose 0.125-8 µg/ml; time 5 day; at 0.125 to 8 µg/mL
Mycobacterium avium = assay: Antimycobacterial activity against Mycobacterium avium ATCC 25291 assessed as bacterial growth inhibition incubated for 6 days under normoxic condition by resazurin microtiter assay; format: functional; settings: ATCC 25291, 144 h, time 6 day
[3] = tested on: Mycobacterium tuberculosis; assay: Antimycobacterial activity against Mycobacterium tuberculosis H37Rv ATCC 27294 assessed as bacterial growth inhibition incubated for 5 days under normoxic condition by resazurin microtiter assay; format: functional; settings: H37Rv ATCC 27294, 120 h, time 5 day
[4] = tested on: Mycolicibacterium smegmatis; assay: Antimycobacterial activity against Mycobacterium smegmatis mc2155 ATCC 700084 assessed as bacterial growth inhibition incubated for 24 hrs under normoxic condition by resazurin microtiter assay; format: functional
[5] = Solubility of compound in water by LC-UV analysis; format: physicochemical
[6] = Solubility of compound in PBS at 7.4 by LC-UV analysis; format: physicochemical; settings: pH 7.4
[7] = tested on: Mycobacterium tuberculosis; assay: Antimycobacterial activity against Mycobacterium tuberculosis H37Rv ATCC 27294 assessed as bacterial growth inhibition incubated for 5 days under hypoxic condition by resazurin microtiter assay; format: functional; settings: H37Rv ATCC 27294, 120 h, time 5 day
[8] = tested on: Mycobacterium tuberculosis; assay: Substrate activity at Mycobacterium tuberculosis Ddn expressed in Escherichia coli BL21 (DE3) assessed as oxidation of F420H2 by measuring Km by spectrophotometric analysis
[9] = tested on: Mycobacterium tuberculosis; assay: Substrate activity at Mycobacterium tuberculosis Ddn expressed in Escherichia coli BL21 (DE3) assessed as oxidation of F420H2 by measuring Kcat by spectrophotometric analysis
[10] = tested on: Mycobacterium tuberculosis; assay: Substrate activity at Mycobacterium tuberculosis Ddn expressed in Escherichia coli BL21 (DE3) assessed as oxidation of F420H2 by measuring Kcat/Km by spectrophotometric analysis
[11] = Clearance in CD-1 mouse at 10 mg/kg, iv measured upto 48 hrs by LC/MS/MS analysis; format: ADME, organism-based; settings: in vivo
[12] = AUC (0 to last) in CD-1 mouse at 25 mg/kg, po measured upto 48 hrs by LC/MS/MS analysis; format: ADME, organism-based; set-up: dose 25 mg/kg, time < 48 hrs, route po; settings: in vivo
[13] = Tmax in CD-1 mouse at 25 mg/kg, po measured upto 48 hrs by LC/MS/MS analysis; format: ADME, organism-based; settings: in vivo
[14] = Volume of distribution at steady state in CD-1 mouse at 10 mg/kg, iv measured upto 48 hrs by LC/MS/MS analysis; format: ADME, organism-based; settings: in vivo, read-out: Vdss
[15] = Cmax in CD-1 mouse at 25 mg/kg, po measured upto 48 hrs by LC/MS/MS analysis; format: ADME, organism-based; set-up: time < 48 hrs, dose 25 mg/kg, route po; settings: in vivo
[16] = Half life in CD-1 mouse at 10 mg/kg, iv measured upto 48 hrs by LC/MS/MS analysis; format: ADME, organism-based; settings: in vivo
[17] = Half life in CD-1 mouse at 25 mg/kg, po measured upto 48 hrs by LC/MS/MS analysis; format: ADME, organism-based; settings: in vivo
[18] = Oral bioavailability in CD-1 mouse at 25 mg/kg measured upto 48 hrs by LC/MS/MS analysis; format: ADME, organism-based; settings: in vivo
[19] = Oral bioavailability in CD-1 mouse at 20 mg/kg administered as DMSO/PEG400 formulation measured upto 24 hrs by LC-MS/MS analysis; format: ADME, organism-based; settings: in vivo
[20] = Volume of distribution at steady state in CD-1 mouse at 5 mg/kg, iv administered as DMSO/PEG400 formulation measured upto 24 hrs by LC-MS/MS analysis; format: ADME, organism-based; settings: in vivo, read-out: Vdss
[21] = Tmax in CD-1 mouse at 20 mg/kg, po administered as DMSO/PEG400 formulation measured upto 24 hrs by LC-MS/MS analysis; format: ADME, organism-based; settings: in vivo
[22] = Cmax in CD-1 mouse at 20 mg/kg, po administered as DMSO/PEG400 formulation measured upto 24 hrs by LC-MS/MS analysis; format: ADME, organism-based; set-up: dose 20 mg/kg, time < 24 hrs, route po; settings: in vivo
[23] = Plasma protein binding in mouse; format: ADME, cell-free; settings: read-out: PPB (converted)
[24] = Clearance in CD-1 mouse at 5 mg/kg, iv administered as DMSO/PEG400 formulation measured upto 24 hrs by LC-MS/MS analysis; format: ADME, organism-based; settings: in vivo
[25] = Metabolic stability in human microsomes assessed as compound remaining measured after 2 hrs; format: ADME, Microsome; settings: read-out: Stability
[26] = Metabolic stability in mouse microsomes assessed as compound remaining measured after 2 hrs; format: ADME, Microsome; settings: read-out: Stability
[27] = Plasma protein binding in human; format: ADME, cell-free; settings: read-out: PPB (converted)
[28] = AUC(0 to 8 hrs) in CD-1 mouse at 20 mg/kg, po administered as DMSO/PEG400 formulation measured upto 24 hrs by LC-MS/MS analysis; format: ADME, organism-based; set-up: dose 20 mg/kg, time < 24 hrs, route po; settings: in vivo
[29] = Stability in human plasma assessed as compound remaining measured after 2 hrs; format: ADME, cell-free; settings: read-out: Stability
[30] = Half life in CD-1 mouse at 5 mg/kg, iv administered as DMSO/PEG400 formulation measured upto 24 hrs by LC-MS/MS analysis; format: ADME, organism-based; settings: in vivo
[31] = Half life in CD-1 mouse at 5 mg/kg, iv administered as DMSO/PEG400/Cremophor RH40/water formulation measured upto 24 hrs by LC-MS/MS analysis; format: ADME, organism-based; settings: in vivo
[32] = Clearance in CD-1 mouse at 5 mg/kg, iv administered as DMSO/PEG400/Cremophor RH40/water formulation measured upto 24 hrs by LC-MS/MS analysis; format: ADME, organism-based; settings: in vivo
[33] = Half life in CD-1 mouse at 20 mg/kg, po administered as DMSO/PEG400/Cremophor RH40/water formulation measured upto 24 hrs by LC-MS/MS analysis; format: ADME, organism-based; settings: in vivo
[34] = Volume of distribution at steady state in CD-1 mouse at 5 mg/kg, iv administered as DMSO/PEG400/Cremophor RH40/water formulation measured upto 24 hrs by LC-MS/MS analysis; format: ADME, organism-based; settings: in vivo, read-out: Vdss
[35] = Oral bioavailability in CD-1 mouse at 20 mg/kg administered as DMSO/PEG400/Cremophor RH40/water formulation measured upto 24 hrs by LC-MS/MS analysis; format: ADME, organism-based; settings: in vivo
[36] = AUC(0 to 8 hrs) in CD-1 mouse at 20 mg/kg, po administered as DMSO/PEG400/Cremophor RH40/water formulation measured upto 24 hrs by LC-MS/MS analysis; format: ADME, organism-based; set-up: time < 24 hrs, dose 20 mg/kg, route po; settings: in vivo
[37] = Cmax in CD-1 mouse at 20 mg/kg, po administered as DMSO/PEG400/Cremophor RH40/water formulation measured upto 24 hrs by LC-MS/MS analysis; format: ADME, organism-based; set-up: dose 20 mg/kg, time < 24 hrs, route po; settings: in vivo
[38] = Tmax in CD-1 mouse at 20 mg/kg, po administered as DMSO/PEG400/Cremophor RH40/water formulation measured upto 24 hrs by LC-MS/MS analysis; format: ADME, organism-based; settings: in vivo

SMILES | MIC [1] | MIC (Mycobacterium avium) | MIC [3] | MIC [4] | solubility ([5]; water, read-out: solubility) | Km [8] | kcat [9] | kcat/Km [10] | also measured
Cc1cccc(Cn2ccn3cc([N+](=O)[O-])nc3c2=O)c1 | ≤ 0.016 mg/L | > 32 mg/L | 0.063 mg/L (≈ 0.222 µM) | > 32 mg/L | – | – | – | – | inhibition (INH) [2]: 70%
Cc1cn2cc([N+](=O)[O-])nc2c(=O)n1Cc1ccc(OC(F)(F)F)cc1 | 4 mg/L (≈ 10.9 µM) | > 32 mg/L | > 32 mg/L | > 32 mg/L | – | – | – | – | –
O=c1c2nc([N+](=O)[O-])cn2ccn1Cc1ccccc1 | – | – | – | – | 3.2 µM (≈ 0.865 µg/mL) | – | – | – | solubility [6]: 2.7 µM (≈ 0.73 µg/mL)
O=C1c2nc([N+](=O)[O-])cn2CN1Cc1ccccc1 | – | – | > 32 mg/L | – | 5.9 µM (≈ 1.52 µg/mL) | – | – | – | solubility [6]: 5.9 µM (≈ 1.52 µg/mL); MIC [7]: > 32 mg/L
NNC(=O)c1ccncc1 [ISONIAZID] | 0.031 mg/L (≈ 0.226 µM) | > 32 mg/L | – | > 32 mg/L | – | – | – | – | –
O=c1c2nc([N+](=O)[O-])cn2ccn1Cc1cncc(-c2cccc(OC(F)(F)F)c2)c1 | – | – | – | – | – | 4.3 µM | 1.4 10^-2/s | 3190 M⁻¹ s⁻¹ | –
O=[N+]([O-])c1cn2c(n1)OC[C@@H](OCc1ccc(OC(F)(F)F)cc1)C2 [PRETOMANID] | ≤ 0.016 mg/L | > 32 mg/L | – | > 32 mg/L | – | 7.3 µM | 9.3 10^-3/s | 1260 M⁻¹ s⁻¹ | clearance [11]: 0.726 L/h/kg; AUC(0-t) at 48 h [12]: 50.9 µg·h/mL; Tmax [13]: 2 h; Vd [14]: 1.6 L/kg; Cmax [15]: 6 µg/mL; half-life [16]: 1.6 h; half-life [17]: 2.7 h; bioavailability [18]: 100%
O=c1c2nc([N+](=O)[O-])cn2ccn1Cc1cccc(OC(F)(F)F)c1 | – | > 32 mg/L | – | > 32 mg/L | 5.4 µM (≈ 1.91 µg/mL) | 45 µM | 3.1 10^-3/s | 70 M⁻¹ s⁻¹ | bioavailability [19]: 73%; Vd [20]: 1.1 L/kg; Tmax [21]: 3 h; Cmax [22]: 2.9 µg/mL; fraction unbound [23]: < 0.01; clearance [24]: 0.606 L/h/kg; remaining at 2 h [25]: > 99%; remaining at 2 h [26]: 97%; fraction unbound [27]: < 0.01; AUC(0-t) at 24 h [28]: 15.6 µg·h/mL; remaining at 2 h [29]: 99%; half-life [30]: 1.1 h
O=c1c2nc([N+](=O)[O-])cn2ccn1Cc1ccc(-c2cccc(OC(F)(F)F)c2)nc1 | – | – | – | – | – | 5 µM | 1.3 10^-3/s | 266 M⁻¹ s⁻¹ | –
O=c1[nH]c(-c2ccccc2)cn2cc([N+](=O)[O-])nc12 | > 32 mg/L | > 32 mg/L | > 32 mg/L | > 32 mg/L | – | 164 µM | 1.3 10^-3/s | 8.1 M⁻¹ s⁻¹ | solubility ([5]; buffer): 27 µM (≈ 6.92 µg/mL); half-life [31]: 1.2 h; clearance [32]: 0.203 L/h/kg; half-life [33]: 3.2 h; MIC [7]: > 32 mg/L; Vd [34]: 0.34 L/kg; bioavailability [35]: 87%; AUC(0-t) at 24 h [36]: 88.3 µg·h/mL; Cmax [37]: 13 µg/mL; Tmax [38]: 2 h
